According to patent US20230113037A1 (Bayer Aktiengesellschaft, priority 2019, published 2023):
Where “and” joins values, the source holds several entries; their conditions need not be identical. Identical values can stand only once. Like-named read-outs stand apart in the source and are kept apart here.

Assays:
[1] = target: T1, AHR (Mus musculus, UniProt P30561); test: In vitro assay 3: antagonism in mouse cell line (AHR transactivation, firefly luciferase reporter, kynurenic acid prestimulated); format: cell-based
T1 sequence (P30561 1-848 P471L/N533S/M589L): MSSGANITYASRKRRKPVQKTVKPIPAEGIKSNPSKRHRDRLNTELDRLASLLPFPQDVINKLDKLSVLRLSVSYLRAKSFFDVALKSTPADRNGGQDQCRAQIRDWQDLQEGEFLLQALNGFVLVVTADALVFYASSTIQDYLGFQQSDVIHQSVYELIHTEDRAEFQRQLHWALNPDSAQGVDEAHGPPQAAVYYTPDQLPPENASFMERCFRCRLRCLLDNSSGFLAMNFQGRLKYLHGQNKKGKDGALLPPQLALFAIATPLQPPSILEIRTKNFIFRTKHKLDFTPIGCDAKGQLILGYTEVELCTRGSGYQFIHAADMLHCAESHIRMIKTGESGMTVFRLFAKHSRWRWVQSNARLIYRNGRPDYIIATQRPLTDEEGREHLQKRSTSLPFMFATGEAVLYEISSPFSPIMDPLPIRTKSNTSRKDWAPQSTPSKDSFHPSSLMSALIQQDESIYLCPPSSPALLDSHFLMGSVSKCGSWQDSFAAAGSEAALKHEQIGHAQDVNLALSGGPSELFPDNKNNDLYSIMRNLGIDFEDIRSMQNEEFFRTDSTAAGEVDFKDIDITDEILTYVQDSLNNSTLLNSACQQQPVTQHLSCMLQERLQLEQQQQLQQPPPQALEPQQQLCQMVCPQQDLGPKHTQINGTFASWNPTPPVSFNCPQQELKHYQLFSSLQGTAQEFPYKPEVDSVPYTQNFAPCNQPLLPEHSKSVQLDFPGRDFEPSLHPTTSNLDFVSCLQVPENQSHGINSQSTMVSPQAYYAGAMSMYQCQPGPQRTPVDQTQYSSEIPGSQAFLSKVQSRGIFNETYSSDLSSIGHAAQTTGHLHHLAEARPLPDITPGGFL
Procedure, shortened: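 Cells were first stimulated with kynurenic acid, then exposed to test compound, after which firefly luciferase from a DRE-containing AHR reporter was read out. Signal was scaled between positive and negative controls. Cells not given kynurenic acid provided the inhibition reference.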

[2] = target: T2, AHR (Homo sapiens, UniProt P35869); test: In vitro assay 1: antagonism in human cell line (AHR transactivation, firefly luciferase reporter, kynurenic acid prestimulated); format: cell-based; conditions: AHR Antagonism Human IC50 [M]
T2 construct: U87 MG glioblastoma cells (ATCC #HTB-14) endogenously expressing AHR; endogenous in cells; host or cells: U87 MG glioblastoma cells (ATCC #HTB-14)
T2 sequence (P35869 11-848): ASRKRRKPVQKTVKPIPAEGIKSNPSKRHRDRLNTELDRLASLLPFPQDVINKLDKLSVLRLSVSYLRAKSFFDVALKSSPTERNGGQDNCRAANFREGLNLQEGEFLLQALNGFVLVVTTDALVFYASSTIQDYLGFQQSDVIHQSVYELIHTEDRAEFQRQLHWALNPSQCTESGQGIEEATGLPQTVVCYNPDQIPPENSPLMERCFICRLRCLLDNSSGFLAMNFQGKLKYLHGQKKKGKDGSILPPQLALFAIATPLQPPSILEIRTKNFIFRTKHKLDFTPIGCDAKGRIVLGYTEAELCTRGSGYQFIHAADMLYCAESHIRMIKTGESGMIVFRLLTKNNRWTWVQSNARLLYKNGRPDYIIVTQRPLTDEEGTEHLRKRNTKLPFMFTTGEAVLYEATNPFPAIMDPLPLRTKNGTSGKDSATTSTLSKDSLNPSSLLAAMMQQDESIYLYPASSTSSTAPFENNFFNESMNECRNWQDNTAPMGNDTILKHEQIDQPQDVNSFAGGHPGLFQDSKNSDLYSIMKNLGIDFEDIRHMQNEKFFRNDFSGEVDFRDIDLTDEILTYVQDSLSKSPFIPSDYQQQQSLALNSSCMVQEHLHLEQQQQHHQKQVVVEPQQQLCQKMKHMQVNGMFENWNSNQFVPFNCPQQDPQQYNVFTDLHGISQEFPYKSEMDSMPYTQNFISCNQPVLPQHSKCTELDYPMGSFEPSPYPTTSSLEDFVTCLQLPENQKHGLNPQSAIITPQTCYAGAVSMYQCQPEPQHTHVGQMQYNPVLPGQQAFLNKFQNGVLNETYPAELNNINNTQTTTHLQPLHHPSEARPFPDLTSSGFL
Experimental: Examples were tested in selected biological assays one or more times. When tested more than once, data are reported as either average values or as median values, wherein • the average value, also referred to as the arithmetic mean value, represents the sum of the values obtained divided by the number of times tested, and • the median value represents the middle number of the group of values when ranked in ascending or descending order. If the number of values in the data set is odd, the median is the middle value. If the number of values in the data set is even, the median is the arithmetic mean of the two middle values.
Transactivation assays were carried out in U87 MG glioblastoma cells (ATCC #HTB-14) endogenously expressing AHR. In addition the cells were stably transfected with an AHR inducible firefly luciferase reporter gene construct that carried AHR-binding sites (DRE) in its promoter and a renilla reporter gene construct with constitutively active promoter. Kynurenic acid is an endogenous AHR activating ligand and was used to prestimulate test cells prior to testing the antagonistic properties of compounds.
As positive inhibition control cells supplemented with 150 μM kynurenic acid were incubated in presence of 5 μM Staurosporin. Normalization was done by positive and negative controls.
Firefly luciferase and Renilla activity was determined by the DualGlo Luciferase Assay System (Promega, #2920). Renilla activity was used to assess toxic effects of compounds.

[3] = mouse Hepa 1c1c7 cells, 200 μM kynurenic acid, 20 hours, read-out: AHR Antagonism Mouse IC50
[4] = Hepa 1c1c7 cells, 200 μM kynurenic acid, 20 hours, firefly luciferase reporter, read-out: AHR Antagonism Mouse IC50

Structure (SMILES)	IC50 [1, 3]	IC50 [2]	IC50 [1, 4]	IC50 ([2]; firefly luciferase reporter)	IC50 ([1]; read-out: AHR Antagonism Mouse IC50, mouse Hepa 1c1c7 cells, 200 μM kynurenic acid, 20 hours)
COc1ccc(-c2nc3c4cccc(S(C)(=N)=O)c4nc(N[C@@H]4CCCCNC4=O)n3n2)cc1 (mixture of isomers) [Example 853, (3R)-3-{[7-(S-methanesulfonimidoyl)-2-(4-methoxyphenyl)[1,2,4]triazolo[1,5-c]quinazolin-5-yl]amino}azepan-2-one]			68.6 nM	2.04e-09 M	
Cn1cc(-c2nc3c4ccccc4nc(NC4CNCCNC4=O)n3n2)cn1 (racemic) [Example 22, 6-{[2-(1-methyl-1H-pyrazol-4-yl)[1,2,4]triazolo[1,5-c]quinazolin-5-yl]amino}-1,4-diazepan-5-one]	2030 nM	5.33e-06 M			
CCCC[C@H](Nc1nc2ccccc2c2nc(-c3cccc(OC(F)(F)F)c3)nn12)C(N)=O (racemic) [Example 322, N^2-{2-[3-(trifluoromethoxy)phenyl][1,2,4]triazolo[1,5-c]quinazolin-5-yl}-norleucinamide]		6.42e-08 M			35.7 nM
Cn1cc(-c2nc3c4ccccc4nc(NC4CCNC4=O)n3n2)cn1 (single isomer, unassigned) [Example 18, 3-{[2-(1-methyl-1H-pyrazol-4-yl)[1,2,4]triazolo[1,5-c]quinazolin-5-yl]amino}pyrrolidin-2-one]	2220 nM	1.11e-06 M			
Cn1cc(-c2nc3c4ccccc4nc(NC4CCCNC4=O)n3n2)cn1 (single isomer, unassigned) [Example 20, 3-{[2-(1-methyl-1H-pyrazol-4-yl)[1,2,4]triazolo[1,5-c]quinazolin-5-yl]amino}piperidin-2-one]	2210 nM	1.24e-06 M			
Cn1cc(-c2nc3c4ccccc4nc(NC4CCCNC4=O)n3n2)cn1 (single isomer, unassigned) [Example 21, 3-{[2-(1-methyl-1H-pyrazol-4-yl)[1,2,4]triazolo[1,5-c]quinazolin-5-yl]amino}piperidin-2-one]	> 20000 nM and 19700 nM	1.29e-05 M			
Cn1cc(-c2nc3c4ccccc4nc(NC4CNCCNC4=O)n3n2)cn1 (single isomer, unassigned) [Example 23, 6-{[2-(1-methyl-1H-pyrazol-4-yl)[1,2,4]triazolo[1,5-c]quinazolin-5-yl]amino}-1,4-diazepan-5-one]	3380 nM	> 2e-05 M and 1.65e-05 M			
COc1ccc(-c2nc3c4ccccc4nc(NC4CNCCNC4=O)n3n2)cc1 (single isomer, unassigned) [Example 36, 6-{[2-(4-methoxyphenyl)[1,2,4]triazolo[1,5-c]quinazolin-5-yl]amino}-1,4-diazepan-5-one]	29.4 nM	8.01e-09 M			
Cc1ccccc1-c1nc2c3ccccc3nc(NC3CCCNC3=O)n2n1 (single isomer, unassigned) [Example 48, 3-{[2-(2-methylphenyl)[1,2,4]triazolo[1,5-c]quinazolin-5-yl]amino}piperidin-2-one]	62 nM	3.2e-08 M			
Cc1ccccc1-c1nc2c3ccccc3nc(NC3CCNC3=O)n2n1 (single isomer, unassigned) [Example 50, 3-{[2-(2-methylphenyl)[1,2,4]triazolo[1,5-c]quinazolin-5-yl]amino}pyrrolidin-2-one]	20.4 nM	1.06e-08 M			
Cc1ccccc1-c1nc2c3ccccc3nc(NC3CCNC3=O)n2n1 (single isomer, unassigned) [Example 51, 3-{[2-(2-methylphenyl)[1,2,4]triazolo[1,5-c]quinazolin-5-yl]amino}pyrrolidin-2-one]	131 nM	3.09e-08 M			

The next lines start with results.

IC50 [1, 3]	IC50 [2]	IC50 [1, 4]	IC50 ([2]; firefly luciferase reporter)	Structure (SMILES)	IC50 ([1]; read-out: AHR Antagonism Mouse IC50, mouse Hepa 1c1c7 cells, 200 μM kynurenic acid, 20 hours)
3.63 nM	6.89e-09 M			C[S+]([O-])c1ccccc1-c1nc2c3ccccc3nc(N[C@@H]3CCCCNC3=O)n2n1 (mixture of isomers) [Example 648, (3R)-3-[(2-{2-[methanesulfinyl]phenyl}[1,2,4]triazolo[1,5-c]quinazolin-5-yl)amino]azepan-2-one]	
		110 nM	5.39e-08 M	C[C@@H](Nc1nc2c(C(F)(F)F)cccc2c2nc(-c3cnn(C)c3)nn12)C(=O)N1CCC(N(C)C)C1 (mixture of isomers) [Example 876, (2R)-1-[(3R/S)-3-(dimethylamino)pyrrolidin-1-yl]-2-{[2-(1-methyl-1H-pyrazol-4-yl)-7-(trifluoromethyl)[1,2,4]triazolo[1,5-c]quinazolin-5-yl]amino}propan-1-one]	
446 nM	> 2e-05 M			Cn1cc(-c2nc3c4cccc(C(F)(F)F)c4nc(NC4C(=O)NCC4(C)C)n3n2)cn1 (racemic) [Example 728, (+/−)-4,4-dimethyl-3-{[2-(1-methyl-1H-pyrazol-4-yl)-7-(trifluoromethyl)[1,2,4]triazolo[1,5-c]quinazolin-5-yl]amino}pyrrolidin-2-one]	
60.4 nM	1.55e-06 M			COc1ccc(-c2nc3c4ccccc4nc(NC4CNCCNC4=O)n3n2)cc1 (single isomer, unassigned) [Example 35, 6-{[2-(4-methoxyphenyl)[1,2,4]triazolo[1,5-c]quinazolin-5-yl]amino}-1,4-diazepan-5-one]	
69.8 nM	1.94e-08 M			COc1ccc(-c2nc3c4ccccc4nc(NC4CCCNC4=O)n3n2)cc1 (single isomer, unassigned) [Example 38, 3-{[2-(4-methoxyphenyl)[1,2,4]triazolo[1,5-c]quinazolin-5-yl]amino}piperidin-2-one]	
5.25 nM	2.93e-08 M			Cc1ccccc1-c1nc2c3ccccc3nc(NC3CNCCNC3=O)n2n1 (single isomer, unassigned) [Example 46, 6-{[2-(2-methylphenyl)[1,2,4]triazolo[1,5-c]quinazolin-5-yl]amino}-1,4-diazepan-5-one]	
27.9 nM	1.86e-08 M			Cc1ccccc1-c1nc2c3ccccc3nc(NC3CNCCNC3=O)n2n1 (single isomer, unassigned) [Example 47, 6-{[2-(2-methylphenyl)[1,2,4]triazolo[1,5-c]quinazolin-5-yl]amino}-1,4-diazepan-5-one]	
26.1 nM	8.5e-08 M			Cc1ccccc1-c1nc2c3ccccc3nc(NC3CCCNC3=O)n2n1 (single isomer, unassigned) [Example 49, 3-{[2-(2-methylphenyl)[1,2,4]triazolo[1,5-c]quinazolin-5-yl]amino}piperidin-2-one]	
